Data taken from patent US10059708B2, “Therapeutic targeting of the interleukin 1 receptor-associated kinase 4 (IRAK4) in leukemias characterized by rearrangements in the mixed lineage leukemia gene (MLL-r)” (Northwestern University, priority 2016, dated 2018).

Experiments:
[1] = tested on: MLL-AF6-positive ML2 leukemia cells; assay: Dose-dependent growth study, ML2 cells; format: cell-based, human; conditions: different doses, 3 days
Experimental: (§1) FIG. 5. Determinants of the Increased Sensitivity of MLL Leukemia Cells to IRAK Inhibition (A) IRAK4 inhibitor-specific inhibition of MLL leukemia cell proliferation. Multiple MLL leukemia and non-MLL leukemia or lymphoma cell lines were cultured with different doses of IRAK4 inhibitor for 3 days. Data are represented as mean±SD (n=3). (B) Cell growth of MLL-AF9-positive AML MM6 cells is inhibited by IRAK inhibition. Data are represented as mean±SD (n=3). […] The p value was determined with the hypergeometric test. […] (E and F) Depletion of LGALS1 (E) and LMO2 (F) results in reduced growth of MM6 cells. MM6 cells were transduced with shGFP control (GFPi) or two different lentiviral shRNA constructs. After selection with puromycin for 4 days, viable cells were seeded at 0.2 million/mL and cultured for 3 more days before cell viability counting. Data represent the mean±SD (n=3; **p<0.005, one-way ANOVA). See also FIG. 12.
(§2) Determinants of the Increased Sensitivity of MLL Leukemia Cells to IRAK Inhibition. To further determine the effectiveness of IRAK inhibition for MLL leukemia cell growth, we performed dose-dependent studies with multiple patient-derived leukemia cell lines, including MLL leukemia and non-MLL leukemia or lymphoma cells.

[2] = tested on: MLL-rearranged AML and ALL leukemia cells; assay: Dose-dependent growth study with patient-derived leukemia cell lines; format: cell-based, human; conditions: different doses, 3 days
Experimental: as §1, §2

MLL-AF9 leukemia = assay: Murine MLL-AF9 leukemia transplantation model; format: in vivo, C57BL/6 mice; conditions: treatment from day 10 after transplantation; IRAK1/4 inhibitor 8 mg/kg, IRAK4 inhibitor 75 mg/kg i.p. every other day; vehicle mice all dead by 31 days
From the text: After transformation of MLL-AF9, c-Kit+ HSPCs were transplanted into lethally irradiated C57BL/6 mice with 1 3 106 transformed cells and 2 3 105 support cells. Leukemia cells from primary AML mice were isolated and transplanted into sublethally irradiated C57BL/6 mice. Drug treatments were started at day 10 or 19 after transplantation. (B) Kaplan-Meier survival curves of secondary transplanted C57BL/6 mice after vehicle and IRAK1/4 or IRAK4 inhibitor treatment at day 19 (blast phase). Vehicle or IRAK inhibitors were administered every other day by intraperitoneal injection for a total of five treatments. Leukemia was confirmed at the endpoint for each transplant mouse. […] The p values were calculated using the log rank test. […] The p values were calculated using the log rank test. […]
We further assessed the effects of the IRAK inhibitors in vivo using the murine MLL-AF9 leukemia transplantation model (FIG. 7A) (Volk et al., 2014). […]
Murine MLL-AF9 Leukemia Model. […] The mice were monitored for signs of acute leukemia for 2-3 months and euthanized when leukemia was evident (weight loss below 16.75 g, reduced mobility, malaise, palpable spleen, and hunched back). […]
Animal Treatment. […] Mice were monitored for leukemia development and leukemia was verified after the mice were sacrificed upon signs of illness (weight loss below 16.75 g, partial paralysis, malaise, palpable spleen, and hunched back).

REH cells = assay: REH cell proliferation (trypan blue, Vi-CELL XR); format: cell-based, human; conditions: 500 nM IRAK4 inhibitor
Experimental: FIG. 4. […] Viable cells were seeded at 0.2 million/mL, and they were monitored by trypan blue exclusion staining and counted using a Vi-CELL XR cell counter. Data are represented as mean±SD (n=3). […] Data are represented as mean±SD (n=3). (C) Venn diagram of deregulated genes in SEM cells by IRAK1/4 and IRAK4 inhibitors. […] (D) Venn diagram of deregulated genes in SEM and REH cells by both inhibitors. Little overlap was observed between REH and SEM cells. […] Each cluster is represented by different colors and a circle node represents each enriched term. (G) UBE2O depletion and IRAK inhibition affect a common subset of genes in SEM cells. […] Heatmaps represent Z score-normalized values. See also FIG. 11.
Stabilization of MLL through IRAK Inhibition and UBE2O Depletion Regulates a Specific Gene Regulatory Network in MLL Leukemia. To measure the consequence of stabilizing MLL in MLL leukemia cells, we determined the effects of IRAK inhibition on cell proliferation of REH (MLL-germline leukemia) and SEM (MLL-AFF1) cells. Both of these cell lines are derived from precursor B cell ALL patient blast cells, and, therefore, they have been studied when comparing non-MLL (REH) and MLL-dependent (SEM) leukemia gene expression (Guenther et al., 2008).

COc1cc2c(cc1OCCCN1CCN(C)CC1)ncc1c3ccc(C#N)cc3[nH]c21 [IRAK4 inhibitor]
sensitivity of ML2 cells (wild-type MLL allele deleted) [1]: not sensitive | cell growth of MLL-rearranged versus non-MLL leukemia or lymphoma cells [2]: preferentially impeded cell growth of MLL-rearranged AML and ALL leukemia cells | mice that still did not develop MLL-AF9 leukemia as of day 55 (MLL-AF9 leukemia): four of nine | REH cell proliferation (REH cells): no detectable effect
